Where two headings read alike, the source gives them in different places.
Legend:
[1] = cited from earlier work
[2] = Saturation solubility of meloxicam and its salts in various dissolving media; assay type: physicochemical; settings: 0.1 N hydrochloric acid, pH 1, simulated gastric fluid, read-out: Solubility at ambient temperature
[3] = depending on the formulation; cited from earlier work
[4] = assay type: physicochemical
Method: Under ambient conditions the monohydrate of the meloxicam-meglumin salt is the stable modification, but at a relative humidity of over 75% a dihydrate is formed. The enclosed water can only be eliminated from the dihydrate under conditions of very great dryness. […] By intensive drying over a fairly long period the anhydrous form changes more and more into an amorphous form and after 24 h at 100° C. the material is totally amorphous.
The relevant parameters of the dehydration process are the temperature and duration of dehydration, the influence of which were observed by X-ray powder diffraction. The longer the dehydration process lasts, the less crystalline is the resulting material. […] The X-ray powder diffraction diagrams obtained after 1 hour at 80° C., 15 hours at 70° C., 20 hours at 80° C. and 24 hours at 100° C. are shown in FIG. 7.

ibuprofen-lysinate
time after administration to peak-plasma level ([1]; 8 fasting test subjects, ibuprofen-lysinate 1000 mg film-coated tablet, ibuprofenic acid 600 mg sugar-coated tablet): 0.55 h | time after administration to peak-plasma level ([1]; non-fasting test subjects): 1.18 h

Cc1cnc(NC(=O)C2=C(O)c3ccccc3S(=O)(=O)N2C)s1 [Meloxicam, 4-hydroxy-2-methyl-N-(5-methyl-2-thiazolyl)-2H-1,2-benzothiazine-3-carboxamide-1,1-dioxide]
solubility thermodynamic [2]: 0.9 µg/mL | time to maximum plasma levels [3]: 2 to 8 h

CNC[C@H](O)[C@@H](O)[C@H](O)[C@H](O)CO.Cc1cnc(NC(=O)C2=C(O)c3ccccc3S(=O)(=O)N2C)s1 [Example 3, Anhydrous Meloxicam Meglumin Salt]
stability of the anhydrous form after dehydration [4]: very rapidly absorbs water to form the monohydrate form

CNC[C@H](O)[C@@H](O)[C@H](O)[C@H](O)CO.Cc1cnc(NC(=O)C2=C(O)c3ccccc3S(=O)(=O)N2C)s1.O [Example 1, Meloxicam Meglumin Salt Monohydrate]
hygroscopic properties [4]: hygroscopic | solid-state change on dehydration (X-ray powder diffraction) ([4]; 24 hours at 100° C.): anhydrous and totally amorphous | solid-state change on dehydration (X-ray powder diffraction) ([4]; one hour at 80° C.): no change can be detected

From patent US6869948B1 (Boehringer Ingelheim Pharma KG, priority 1998, dated 2005)
